Structures are written as SMILES.

Assay [1] has as its target T1, A2B adenosine receptor (Homo sapiens, UniProt P29275).
T1 construct: expressed in transfected cells; host or cells: HEK-293 (HEK-A2B)
T1 sequence (P29275 1-332): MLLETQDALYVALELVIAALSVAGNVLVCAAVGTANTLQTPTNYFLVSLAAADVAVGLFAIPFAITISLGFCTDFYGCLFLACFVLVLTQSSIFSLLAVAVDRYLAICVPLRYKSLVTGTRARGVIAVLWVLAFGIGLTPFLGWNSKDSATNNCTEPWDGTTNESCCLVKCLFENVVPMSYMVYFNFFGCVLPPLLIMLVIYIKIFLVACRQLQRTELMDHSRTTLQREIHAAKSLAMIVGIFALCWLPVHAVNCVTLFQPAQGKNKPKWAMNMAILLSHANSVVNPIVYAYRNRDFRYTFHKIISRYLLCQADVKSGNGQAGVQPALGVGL
In words: cAMP assay for adenosine receptor (HTRF), HEK-A2B. Format: cell-based. The conditions noted are these: HEK-A2B cells, agonist 70 nM NECA, read-out: A2B Functional Ki. The protocol:
(§1) cAMP Assay for Adenosine Receptor.
(§2) The functional activity of test compounds on A2A and A2B adenosine receptors and selectivity over A1 adenosine was determined using HTRF based cAMP assay (Cisbio). Briefly, overnight seeded cultures (HEK-A1, HEK-A2A, HEK-A2B) were treated with 1U/ml ADA for 90 minutes at 37° C. and 5% CO2. Cell suspensions were treated with increasing concentrations of test compounds for 15 minutes followed by treatment with agonists for 15 minutes (1 nM CPA for HEK-A1 and 70 nM NECA for HEK-A2B) or 30 min (10 nM CGS-21680 for HEK-A2A) at room temperature with continuous mixing in incomplete DMEM supplemented with 1U/ml ADA. Rolipram (20 μM) was included in the assay for A1 and A2A adenosine receptors. For functional activity of HEK-A1, cell suspensions were further treated with forskolin for 30 minutes at room temperature with constant mixing. cAMP levels were quantified using a Flex Station III (Molecular Devices) at an excitation maximum of 313 nm and emission maxima of 620 nm and 665 nm. Data was analyzed using GraphPad Prism to generate IC50 and Ki. The biological activity data is provided in the Table below. <10 nM are represented as ++++, 10-30 nM as +++, 30-100 nM ++ and the K, value >100 nM as +.

Assay [2] concerns the target T2, A2A adenosine receptor (Homo sapiens, UniProt P29274).
T2 construct: expressed in transfected cells; host or cells: HEK-293 (HEK-A2A)
The assay is described as follows: cAMP assay for adenosine receptor (HTRF), HEK-A2A. Format: cell-based. The conditions noted are these: HEK-A2A cells, agonist 10 nM CGS-21680, Rolipram 20 μM, read-out: A2A Functional Ki. As to the method: as §1, §2

T2 sequence (P29274 whole entry): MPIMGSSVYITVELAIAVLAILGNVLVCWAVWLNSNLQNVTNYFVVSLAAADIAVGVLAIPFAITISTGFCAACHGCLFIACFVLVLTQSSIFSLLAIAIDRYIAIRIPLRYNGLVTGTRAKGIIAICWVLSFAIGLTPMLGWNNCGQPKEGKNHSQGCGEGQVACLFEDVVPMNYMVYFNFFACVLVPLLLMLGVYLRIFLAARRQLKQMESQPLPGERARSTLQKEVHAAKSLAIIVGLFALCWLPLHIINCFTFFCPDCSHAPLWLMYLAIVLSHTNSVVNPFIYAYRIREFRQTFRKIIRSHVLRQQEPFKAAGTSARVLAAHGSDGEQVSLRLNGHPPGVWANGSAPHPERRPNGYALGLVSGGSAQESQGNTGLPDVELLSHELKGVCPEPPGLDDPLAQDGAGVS

As to `CCCn1c(=O)c2[nH]c(-c3cnn(Cc4cccc(C(F)(F)F)c4)c3)nc2n2ccnc12` [Example A1, 5-propyl-2-[1-[[3-(trifluoromethyl)phenyl]methyl]pyrazol-4-yl]-3H-imidazo[2,1-b]purin-4-one], the Ki in assay [1] and in assay [2] was below 0.01 µM in each case. Take `Cn1c(=O)c2[nH]c(-c3cnn(Cc4cccc(C(F)(F)F)c4)c3)nc2n2ccnc12` [Example A3, 5-methyl-2-[1-[[3-(trifluoromethyl)phenyl]methyl]pyrazol-4-yl]-3H-imidazo[2,1-b]purin-4-one]: the inhibitory constant (Ki) in assay [1] is below 0.01 µM; in assay [2], 0.01 to 0.03 µM. Consider `CCCn1c(=O)c2[nH]c(-c3cnn(CCc4cccc(F)c4)c3)nc2n2ccnc12` [Example A5, 2-[1-[2-(3-fluorophenyl)ethyl]pyrazol-4-yl]-5-propyl-3H-imidazo[2,1-b]purin-4-one], for which the Ki in assay [2] lay in the range of 0.03 to 0.1 µM. With `CCCn1c(=O)c2[nH]c(-c3cnn(C)c3)nc2n2ccnc12` [Example A6, 2-(1-methylpyrazol-4-yl)-5-propyl-3H-imidazo[2,1-b]purin-4-one], in assay [2], the Ki was above 0.1 µM. As to `CCCn1c(=O)c2[nH]c(-c3cnn(C(C)(C)CC)c3)nc2n2ccnc12` [Example A7, 2-[1-(1,1-dimethylpropyl)pyrazol-4-yl]-5-propyl-3H-imidazo[2,1-b]purin-4-one], the inhibitory constant (Ki) in assay [1] and in assay [2] was below 0.01 µM throughout. In the case of `CCCn1c(=O)c2[nH]c(-c3cnn(CC#Cc4cccc(C(=O)OCC)c4)c3)nc2n2ccnc12` [Example B2, Ethyl 3-[3-[4-(4-oxo-5-propyl-3H-imidazo[2,1-b]purin-2-yl)pyrazol-1-yl]prop-1-ynyl]benzoate], the results for the Ki in assay [1] and in assay [2] were below 0.01 µM and 0.01 to 0.03 µM, respectively.

Consider `CCCn1c(=O)c2[nH]c(-c3cnn(CC#Cc4cccc(OC(F)(F)F)c4)c3)nc2n2ccnc12` [Example B3, 5-propyl-2-[1-[3-[3-(trifluoromethoxy)phenyl]prop-2-ynyl]pyrazol-4-yl]-3H-imidazo[2,1-b]purin-4-one], for which the results for the inhibition constant Ki in assay [1] and in assay [2] were below 0.01 µM and 0.01 to 0.03 µM, respectively. Taken in the same sequence, the figures for `CCCn1c(=O)c2[nH]c(-c3cnn(CC#Cc4cc(C(=O)OCC)ccc4C)c3)nc2n2ccnc12` [Example B6, Ethyl 4-methyl-3-[3-[4-(4-oxo-5-propyl-3H-imidazo[2,1-b]purin-2-yl)pyrazol-1-yl]prop-1-ynyl]benzoate] were below 0.01 µM and 0.03 to 0.1 µM.

In the case of `CCCn1c(=O)c2[nH]c(-c3cnn(Cc4cccc(C#N)c4)c3)nc2n2ccnc12` [Example B7, 3-[[4-(4-oxo-5-propyl-3H-imidazo[2,1-b]purin-2-yl)pyrazol-1-yl]methyl]benzonitrile], the inhibition constant Ki in assay [1] and in assay [2] was below 0.01 µM each time. For `CCCn1c(=O)c2[nH]c(-c3cnn(C(C)C)c3)nc2n2ccnc12` [Example B8, 2-(1-isopropylpyrazol-4-yl)-5-propyl-3H-imidazo[2,1-b]purin-4-one], the inhibition constant (Ki) in assay [1] is below 0.01 µM; in assay [2], 0.01 to 0.03 µM. `CCCCn1cc(-c2nc3c([nH]2)c(=O)n(CCC)c2nccn32)cn1` [Example B9, 2-(1-butylpyrazol-4-yl)-5-propyl-3H-imidazo[2,1-b]purin-4-one]: the inhibition constant Ki in assay [1] is below 0.01 µM; in assay [2], 0.01 to 0.03 µM. On to `CCCn1c(=O)c2[nH]c(-c3cnn(CC)c3)nc2n2ccnc12` [Example B10, 2-(1-ethylpyrazol-4-yl)-5-propyl-3H-imidazo[2,1-b]purin-4-one], for which the inhibition constant (Ki) was below 0.01 µM in assay [1] and 0.01 to 0.03 µM in assay [2].

With `CCCn1c(=O)c2[nH]c(-c3cnn(CCOC)c3)nc2n2ccnc12` [Example B11, 2-[1-(2-methoxyethyl)pyrazol-4-yl]-5-propyl-3H-imidazo[2,1-b]purin-4-one], the inhibition constant (Ki) in assay [1] is 0.01 to 0.03 µM; in assay [2] it was above 0.1 µM. Turning to `CCCn1c(=O)c2[nH]c(-c3cnn(CCN(C)C)c3)nc2n2ccnc12` [Example B12, 2-[1-(2-dimethylaminoethyl)pyrazol-4-yl]-5-propyl-3H-imidazo[2,1-b]purin-4-one], the Ki was 0.01 to 0.03 µM in assay [1] and above 0.1 µM in assay [2]. On to `CCCn1cc(-c2nc3c([nH]2)c(=O)n(CCC)c2nccn32)cn1` [Example B13, 5-propyl-2-(1-propylpyrazol-4-yl)-3H-imidazo[2,1-b]purin-4-one], for which the inhibition constant (Ki) in assay [1] and in assay [2] was below 0.01 µM each time. For the molecule `CCCn1c(=O)c2[nH]c(-c3cnn(CC(=O)N(C)C)c3)nc2n2ccnc12` [Example B14, N,N-dimethyl-2-[4-(4-oxo-5-propyl-3H-imidazo[2,1-b]purin-2-yl)pyrazol-1-yl]acetamide], the inhibition constant Ki in assay [1] is below 0.01 µM; in assay [2], above 0.1 µM. Taken in the same sequence, the figures for `CCCn1c(=O)c2[nH]c(-c3cnn(CC4CCC4)c3)nc2n2ccnc12` [Example B16, 2-[1-(cyclobutylmethyl)pyrazol-4-yl]-5-propyl-3H-imidazo[2,1-b]purin-4-one] were below 0.01 µM and below 0.01 µM. `CCCn1c(=O)c2[nH]c(-c3cnn(CC(C)C)c3)nc2n2ccnc12` [Example B17, 2-(1-isobutylpyrazol-4-yl)-5-propyl-3H-imidazo[2,1-b]purin-4-one]: the inhibitory constant (Ki) in assay [1] is below 0.01 µM; in assay [2], 0.01 to 0.03 µM. As to `CCCn1c(=O)c2[nH]c(-c3cnn(CC(C)(C)C)c3)nc2n2ccnc12` [Example B19, 2-[1-(2,2-dimethylpropyl)pyrazol-4-yl]-5-propyl-3H-imidazo[2,1-b]purin-4-one], the Ki in assay [1] and in assay [2] was below 0.01 µM throughout.

In the case of `CCCn1c(=O)c2[nH]c(-c3cnn(C(C)CC)c3)nc2n2ccnc12` (stereo not shown) [Example B20, 5-propyl-2-(1-sec-butylpyrazol-4-yl)-3H-imidazo[2,1-b]purin-4-one], the Ki in assay [1] and in assay [2] was below 0.01 µM throughout.

For the molecule `CCCn1c(=O)c2[nH]c(-c3cnn(CC4CC(=O)N(c5cncc(C(F)(F)F)c5)C4)c3)nc2n2ccnc12` (stereo not shown) [Example C2, 2-[1-[[5-oxo-1-[5-(trifluoromethyl)-3-pyridyl]pyrrolidin-3-yl]methyl]pyrazol-4-yl]-5-propyl-3H-imidazo[2,1-b]purin-4-one], the Ki in assay [1] is below 0.01 µM; in assay [2], 0.03 to 0.1 µM. Take `CCCn1c(=O)c2[nH]c(-c3cnn(CCN4CCCCC4)c3)nc2n2ccnc12` [Example D1, 2-[1-[2-(1-piperidyl)ethyl]pyrazol-4-yl]-5-propyl-3H-imidazo[2,1-b]purin-4-one]: the figures for the Ki in assay [1] and in assay [2] were below 0.01 µM and 0.03 to 0.1 µM, respectively. Consider `CCCn1c(=O)c2[nH]c(-c3cnn(Cc4cccc(CO)c4)c3)nc2n2ccnc12` [Example E1, 2-[1-[[3-(hydroxymethyl)phenyl]methyl]pyrazol-4-yl]-5-propyl-3H-imidazo[2,1-b]purin-4-one], for which the Ki in assay [1] and in assay [2] was below 0.01 µM each time. As to `CCCn1c(=O)c2[nH]c(-c3cnn(Cc4cccc(C(C)(C)O)c4)c3)nc2n2ccnc12` [Example F1, 2-[1-[[3-(1-hydroxy-1-methyl-ethyl)phenyl]methyl]pyrazol-4-yl]-5-propyl-3H-imidazo[2,1-b]purin-4-one], the Ki was below 0.01 µM in assay [1] and 0.01 to 0.03 µM in assay [2]. Turning to `CCCn1c(=O)c2[nH]c(-c3cnn(Cc4cccc(C(=O)O)c4)c3)nc2n2ccnc12` [Example G1, 3-[[4-(4-oxo-5-propyl-3H-imidazo[2,1-b]purin-2-yl)pyrazol-1-yl]methyl]benzoic Acid], the inhibition constant Ki was below 0.01 µM in assay [1] and 0.01 to 0.03 µM in assay [2]. For the molecule `CCCn1c(=O)c2[nH]c(-c3cnn(CC(=O)O)c3)nc2n2ccnc12` [Example H1, 2-[4-(4-oxo-5-propyl-3H-imidazo[2,1-b]purin-2-yl)pyrazol-1-yl]acetic acid], the Ki is 0.03 to 0.1 µM in assay [1] and above 0.1 µM in assay [2]. For the molecule `CCCn1c(=O)c2[nH]c(-c3cnn(CC(O)CO)c3)nc2n2ccnc12` (stereo not shown) [Example J1, 2-[1-(2,3-dihydroxypropyl)pyrazol-4-yl]-5-propyl-3H-imidazo[2,1-b]purin-4-one], the Ki in assay [1] and in assay [2] was 0.03 to 0.1 µM in each case.

For the origin of these results see US11981679B2, “Tricyclic compounds, compositions and medicinal applications thereof” (IMPETIS BIOSCIENCES LTD., priority 2018, dated 2024).
